Measured values from PubChem BioAssay AID588787 (The Scripps Research Institute Molecular Screening Center, 2011).
Active and inactive are the calls of the source.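 The calls were made as follows: active = pPAFAH enzyme ratio at or below 0.5 while fewer than two other serine hydrolases drop that low; inactive = the rest.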

Tests used:
Test in all cases: off-target hydrolase inhibition by ABPP-MudPIT – biochemical, LC-MS/MS, mouse brain soluble proteome, selectivity assay for pPAFAH inhibitor project, late-stage follow-up (AID 588787)
Abhd11 = details: ABPP-MudPIT FP-biotin spectral counts, at 1 µM, hits give low values
Abhd4 = Abhd4 (UniProt Q8VD66); details: ABPP-MudPIT FP-biotin spectral counts, at 1 µM, hits give low values
Acot1 = details: ABPP-MudPIT FP-biotin spectral counts, at 1 µM, hits give low values
Acot2 = details: ABPP-MudPIT FP-biotin spectral counts, at 1 µM, hits give low values
Acot7 = details: ABPP-MudPIT FP-biotin spectral counts, at 1 µM, hits give low values
[1] = biological target: Acyl-protein thioesterase 1 (Mus musculus) (UniProt P97823); details: ABPP-MudPIT FP-biotin spectral counts, Lypla1, at 1 µM, hits give low values
Apeh = details: ABPP-MudPIT FP-biotin spectral counts, at 1 µM, hits give low values
Dpp8 = details: ABPP-MudPIT FP-biotin spectral counts, at 1 µM, hits give low values
Dpp9 = details: ABPP-MudPIT FP-biotin spectral counts, at 1 µM, hits give low values
Es1 = details: ABPP-MudPIT FP-biotin spectral counts, at 1 µM, hits give low values
Esd = details: ABPP-MudPIT FP-biotin spectral counts, at 1 µM, hits give low values
Fasn = details: ABPP-MudPIT FP-biotin spectral counts, at 1 µM, hits give low values
Lipe = details: ABPP-MudPIT FP-biotin spectral counts, at 1 µM, hits give low values
Lypla2 = details: ABPP-MudPIT FP-biotin spectral counts, at 1 µM, hits give low values
Lyplal1 = details: ABPP-MudPIT FP-biotin spectral counts, at 1 µM, hits give low values
Magl = details: ABPP-MudPIT FP-biotin spectral counts, at 1 µM, hits give low values
Pafah1b2 = details: ABPP-MudPIT FP-biotin spectral counts, at 1 µM, hits give low values
Pafah1b3 = details: ABPP-MudPIT FP-biotin spectral counts, at 1 µM, hits give low values
[2] = biological target: Palmitoyl-protein thioesterase ABHD10, mitochondrial (Mus musculus) (UniProt Q6PE15); details: ABPP-MudPIT FP-biotin spectral counts, at 1 µM, hits give low values
Pla2g15 = details: ABPP-MudPIT FP-biotin spectral counts, at 1 µM, hits give low values
[3] = biological target: Platelet-activating factor acetylhydrolase (Mus musculus) (UniProt Q60963); details: ABPP-MudPIT FP-biotin spectral counts, Pla2g7 (pPAFAH), at 1 µM, hits give low values
Pme1 = details: ABPP-MudPIT FP-biotin spectral counts, at 1 µM, hits give low values
Prepl = details: ABPP-MudPIT FP-biotin spectral counts, at 1 µM, hits give low values
[4] = biological target: Prolyl endopeptidase (Mus musculus) (UniProt Q9QUR6); details: ABPP-MudPIT FP-biotin spectral counts, Prep, at 1 µM, hits give low values
Rbbp9 = details: ABPP-MudPIT FP-biotin spectral counts, at 1 µM, hits give low values
Tpp2 = details: ABPP-MudPIT FP-biotin spectral counts, at 1 µM, hits give low values

Prolyl endopeptidase (Mus musculus), sequence (Q9QUR6 whole entry, looked up): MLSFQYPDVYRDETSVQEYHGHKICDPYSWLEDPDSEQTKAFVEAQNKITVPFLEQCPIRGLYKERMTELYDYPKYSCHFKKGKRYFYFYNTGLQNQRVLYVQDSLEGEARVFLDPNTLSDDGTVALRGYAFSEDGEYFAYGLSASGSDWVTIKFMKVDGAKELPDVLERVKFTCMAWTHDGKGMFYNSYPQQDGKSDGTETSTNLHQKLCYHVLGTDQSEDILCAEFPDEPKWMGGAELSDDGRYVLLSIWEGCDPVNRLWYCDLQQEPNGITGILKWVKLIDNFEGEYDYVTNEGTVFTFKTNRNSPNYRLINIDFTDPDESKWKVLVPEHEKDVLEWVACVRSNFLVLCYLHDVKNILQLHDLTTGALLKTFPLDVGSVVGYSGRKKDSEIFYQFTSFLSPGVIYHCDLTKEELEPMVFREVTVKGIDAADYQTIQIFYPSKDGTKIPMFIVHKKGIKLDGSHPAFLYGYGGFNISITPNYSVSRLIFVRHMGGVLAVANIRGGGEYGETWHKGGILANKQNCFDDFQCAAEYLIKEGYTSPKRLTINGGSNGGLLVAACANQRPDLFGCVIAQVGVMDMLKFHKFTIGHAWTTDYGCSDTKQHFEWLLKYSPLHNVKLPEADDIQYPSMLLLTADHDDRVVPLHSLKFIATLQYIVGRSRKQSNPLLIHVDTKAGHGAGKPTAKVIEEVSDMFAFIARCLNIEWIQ
Palmitoyl-protein thioesterase ABHD10, mitochondrial (Mus musculus), sequence (Q6PE15 whole entry, looked up): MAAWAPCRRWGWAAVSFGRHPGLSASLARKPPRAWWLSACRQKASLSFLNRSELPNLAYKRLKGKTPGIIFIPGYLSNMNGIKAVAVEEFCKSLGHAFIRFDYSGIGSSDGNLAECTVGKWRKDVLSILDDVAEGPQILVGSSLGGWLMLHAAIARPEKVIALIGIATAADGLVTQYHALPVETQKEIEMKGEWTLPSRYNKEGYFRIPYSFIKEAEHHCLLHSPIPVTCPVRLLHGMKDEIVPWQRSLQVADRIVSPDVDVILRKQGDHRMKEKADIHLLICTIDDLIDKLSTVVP
Abhd4, sequence (Q8VD66 whole entry, looked up): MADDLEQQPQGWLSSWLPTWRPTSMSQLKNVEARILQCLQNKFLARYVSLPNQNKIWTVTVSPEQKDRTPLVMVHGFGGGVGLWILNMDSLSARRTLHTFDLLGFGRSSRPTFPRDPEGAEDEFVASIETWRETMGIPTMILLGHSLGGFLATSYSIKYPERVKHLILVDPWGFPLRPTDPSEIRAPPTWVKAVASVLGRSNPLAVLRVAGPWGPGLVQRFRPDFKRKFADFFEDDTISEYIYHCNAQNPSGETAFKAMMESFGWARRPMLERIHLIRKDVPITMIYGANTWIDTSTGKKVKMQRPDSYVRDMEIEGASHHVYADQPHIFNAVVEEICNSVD
Acyl-protein thioesterase 1 (Mus musculus), sequence (P97823 whole entry, looked up): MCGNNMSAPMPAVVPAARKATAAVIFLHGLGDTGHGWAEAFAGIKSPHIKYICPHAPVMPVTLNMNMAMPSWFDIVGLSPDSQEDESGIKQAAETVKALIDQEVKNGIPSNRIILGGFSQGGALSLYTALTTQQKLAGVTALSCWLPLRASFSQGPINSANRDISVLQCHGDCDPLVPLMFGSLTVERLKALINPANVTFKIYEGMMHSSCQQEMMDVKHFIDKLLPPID
Platelet-activating factor acetylhydrolase (Mus musculus), sequence (Q60963 whole entry, looked up): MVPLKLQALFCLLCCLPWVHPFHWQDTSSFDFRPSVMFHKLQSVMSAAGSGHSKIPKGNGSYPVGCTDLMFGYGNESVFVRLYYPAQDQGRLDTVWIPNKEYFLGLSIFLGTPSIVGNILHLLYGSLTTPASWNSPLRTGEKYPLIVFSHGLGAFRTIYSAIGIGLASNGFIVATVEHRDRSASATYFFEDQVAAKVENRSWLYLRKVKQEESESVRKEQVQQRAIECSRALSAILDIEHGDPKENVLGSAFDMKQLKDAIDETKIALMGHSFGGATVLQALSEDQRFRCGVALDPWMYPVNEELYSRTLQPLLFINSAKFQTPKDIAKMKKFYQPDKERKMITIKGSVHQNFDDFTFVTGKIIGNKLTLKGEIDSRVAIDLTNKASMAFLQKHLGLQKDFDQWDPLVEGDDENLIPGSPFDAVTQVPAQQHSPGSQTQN

Cc1cc(N2CCN(C(=O)Oc3ccc(-c4ccccc4)cn3)CC2)c2ccccc2n1
ratio of spectral counts to DMSO (Abhd11): 1.2 (inactive) | ratio of spectral counts to DMSO (Abhd4): 0.8 (inactive) | ratio of spectral counts to DMSO (Acot1): 1.1 (inactive) | ratio of spectral counts to DMSO (Acot2): 1.1 (inactive) | ratio of spectral counts to DMSO (Acot7): 0.8 (inactive) | ratio of spectral counts to DMSO [1]: 1.1 (inactive) | ratio of spectral counts to DMSO (Apeh): 1.1 (inactive) | ratio of spectral counts to DMSO (Dpp8): 1.1 (inactive) | ratio of spectral counts to DMSO (Dpp9): 1.3 (inactive) | ratio of spectral counts to DMSO (Es1): 0 | ratio of spectral counts to DMSO (Esd): 1.1 (inactive) | ratio of spectral counts to DMSO (Fasn): 1.1 (inactive) | ratio of spectral counts to DMSO (Lipe): 0.9 (inactive) | ratio of spectral counts to DMSO (Lypla2): 1.3 (inactive) | ratio of spectral counts to DMSO (Lyplal1): 1.1 (inactive) | ratio of spectral counts to DMSO (Magl): 0.8 (inactive) | ratio of spectral counts to DMSO (Pafah1b2): 1.4 (inactive) | ratio of spectral counts to DMSO (Pafah1b3): 1.2 (inactive) | ratio of spectral counts to DMSO [2]: 1.1 (inactive) | ratio of spectral counts to DMSO (Pla2g15): 1.1 (inactive) | ratio of spectral counts to DMSO [3]: 0 | ratio of spectral counts to DMSO (Pme1): 1.1 (inactive) | ratio of spectral counts to DMSO (Prepl): 1.1 (inactive) | ratio of spectral counts to DMSO [4]: 1.2 (inactive) | ratio of spectral counts to DMSO (Rbbp9): 1.1 (inactive) | ratio of spectral counts to DMSO (Tpp2): 0.8 (inactive)
